This is an account of results in ChEMBL document CHEMBL1144740, “Structural characterization and DPPH radical scavenging activity of an arabinoglucogalactan from Panax notoginseng root” (J Nat Prod, 2008).

The data set in a line: DPPH radical scavenging activity. Type of data set: ADME.

The structures appear in SMILES notation.

In turn, `O=C1O[C@H]([C@@H](O)CO)C(O)=C1O` [ASCORBIC ACID] had an SC50 of 5.24 µg/mL.
Under `OC[C@@H](O)[C@@H]1O[C@H]2O[C@@H]3[C@@H](O)[C@H](O[C@@H]4[C@@H](O)[C@H](O[C@@H]5[C@@H](O)[C@H](O[C@@H]6[C@@H](O)[C@H](O[C@@H]7[C@@H](O)[C@H](O[C@@H]8[C@@H](O)[C@H](O[C@@H]9[C@@H](O)[C@H](O[C@@H]1[C@H]2O)O[C@H]9[C@H](O)CO)O[C@H]8[C@H](O)CO)O[C@H]7[C@H](O)CO)O[C@H]6[C@H](O)CO[C@@H]1O[C@H](CO)[C@@H](O[C@@H]2O[C@H](CO)[C@@H](O)[C@@H]2O)[C@H](O)[C@H]1O)O[C@H]5[C@H](O)CO)O[C@H]4[C@H](O)CO)O[C@H]3[C@H](O)CO` stands 11.72 µg/mL.
